Converted amounts (≈) assume the structure as drawn. Where two headings read alike, the source gives them in different places.
What was measured:
[1] = target: T1, human neutrophil elastase (HNE) (Homo sapiens, UniProt P08246); assay: Potency (I50 determination) against human neutrophil elastase, N-methoxysuccinyl-ala-ala-pro-val-pNA substrate; type: biochemical; settings: for potency relative to Compound A: in words, versus Compound A (pivaloyl group)
T1 sequence (P08246 30-267): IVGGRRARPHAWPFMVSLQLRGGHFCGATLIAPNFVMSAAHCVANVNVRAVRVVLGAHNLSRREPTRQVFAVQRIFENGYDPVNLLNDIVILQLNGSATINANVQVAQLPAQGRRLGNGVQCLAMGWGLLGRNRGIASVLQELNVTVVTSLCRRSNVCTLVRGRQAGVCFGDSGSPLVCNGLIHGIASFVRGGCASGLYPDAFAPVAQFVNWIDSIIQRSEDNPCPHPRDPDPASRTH
Method: Potency (I50 Determination)
A) 0.075M sodium phosphate, 20% dimethyl sulfoxide (DMSO), pH 7.7=substrateand inhibitor buffer
B) 0.075M sodium phosphate no DMSO, pH 7.7=inhibitor buffer
C) 10 mM human neutrophil elastase (HNE) substrate =N-methoxysuccinyl-ala-ala-pro-val-pNA in DMSO
D) 0.01M sodium acetate, 20% DMSO, pH 5.5=enzyme buffer (dilution)
E) 0.01M sodium acetate, pH 5.5=enzyme buffer (storage)
F) HNE (1 mg) dissolved in 1 mL of reagent E for storage at -20° C.
Make a 10 mM stock of the inhibitor in DMSO. Dilute an aliquot (10 μL) up to 1.0 mL in reagent A (100 μM). Serially dilute 100 μL of the 100 μM stock to 10.0, 1.0, 0.1, 0.01 μM in reagent A. Apply 100 μL of the diluted material to the wells of a 96-well plate. Dilute an aliquot of reagent F 1:150 in reagent D, apply 50 μL aliquots to the indicated wells and incubate for 7 minutes at room temperature.
The HNE substrate solution is made by taking 100 μL of reagent C into 500 μL of reagent A and 400 μL of reagent B. After the 7 minutes of incubation, the substrate (50 μL) is applied to each well. The HNE catalyzed reaction is then monitored spectrophotometrically at 405 nm using an ELISA plate reader machine (UVMAX, Molecular Devices) which processes the raw data with an on-board kinetics program. The enzyme activity is plotted against different inhibitor concentrations and the I50 value is determined by using a curve fitting software program. Once the "screening" I50 has been approximated, a more precise I50 value can be obtained by examination of inhibitor concentrations around this value.

[2] = target: porcine pancreatic elastase (PPE) (Sus scrofa, UniProt P00772); assay: Specificity determination, porcine pancreatic elastase, N-succinyl-ala-ala-ala-pNA substrate; type: biochemical; settings: ratio of I50's (PPE/HNE)
Sequence of porcine pancreatic elastase (PPE) (P00772 27-266): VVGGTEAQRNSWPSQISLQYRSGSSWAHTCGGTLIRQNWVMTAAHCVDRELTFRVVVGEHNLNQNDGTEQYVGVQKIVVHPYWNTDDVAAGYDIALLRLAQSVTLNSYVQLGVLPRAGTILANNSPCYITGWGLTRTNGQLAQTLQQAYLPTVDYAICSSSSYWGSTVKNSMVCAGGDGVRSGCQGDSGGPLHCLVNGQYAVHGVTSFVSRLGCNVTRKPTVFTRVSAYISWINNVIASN
Excerpt: (§1) Representative compounds according to the invention have been compared with a compound (Compound A) typifying the compounds described in U.S. Pat. […] The comparisons were directed towards potency (represented by the I50 's for human neutrophil elastase (HNE), porcine pancreatic elastase (PPE) and alpha-chymotrypsin (α-CH)), specificity (represented by the ratios of the I50 's (PPE/HNE and α-CH/HNE)) and the ability to inhibit the digestion of extracellular matrix by activated intact human neutrophils (expressed as a fraction of control) of the compounds listed. The following results were obtained (TABLE IV): Specificity Determination Reagents: 1) Porcine Pancreatic Elastase (PPE) 1 mg/mL in 0.01M sodium acetate, pH 5.5. An aliquot of this stock solution is diluted 1:20 in 0.01M sodium acetate, 20% DMSO, 10 mM CaCl2, pH 5.5. 3) PPE substrate: N-succinyl-[…] 20 mM stock in DMSO. Inhibitor, substrate buffer: 0.1M tris-HCl, 0.01M CaCl2, 0.005% triton X-100, 20% DMSO, pH 7.7.

[3] = target: alpha-chymotrypsin (α-CH) (Bos taurus, UniProt P00766); assay: Specificity determination, alpha-chymotrypsin, N-succinyl-ala-ala-pro-leu-pNA substrate; type: biochemical; settings: ratio of I50's (α-CH/HNE)
Excerpt: as §1, with “2) α-Chymotrypsin (α-CH)” for “1) Porcine Pancreatic Elastase (PPE)”, “1:85” for “1:20”, “5.5, 0.005% triton X-100 detergent. 4) α-CH” for “5.5. 3) PPE”

PBS solubility = type: physicochemical; settings: aqueous buffer
[4] = Table IV, human neutrophil elastase, read-out: HNE I50
[5] = Table III, series with varied R4, read-out: I50

## CC(C)(C)C(=O)Oc1ccc(S(C)(=O)=O)cc1 [Compound A, reference compound]
[1]; [4]
  IC50: 129 nM
[2]
  PPE (I50)/HNE (I50): 18.84
[3]
  α-Chymotrypsin (I50)/HNE(I50): 146.10

## CCC(C(=O)Oc1ccc(S(C)(=O)=O)cc1)c1ccc(OC)cc1 (stereo not drawn) [Compound 37, 4-Methylsulfonylphenyl 2-(4'-Methoxyphenyl)butyrate]
[1]; [4]
  IC50: 31 nM
[1]
  potency relative to Compound A: improve potency relative to a compound bearing a simple pivaloyl group
[2]
  PPE (I50)/HNE (I50): 38.6
[3]
  α-Chymotrypsin (I50)/HNE(I50): 106.2

## CCC(C(=O)Oc1ccc(S(C)(=O)=O)cc1)c1ccccc1 (stereo not drawn) [Compound 3]
[1]; [4]
  IC50: 25 nM
[1]
  potency relative to Compound A: improve potency relative to a compound bearing a simple pivaloyl group
[2]
  PPE (I50)/HNE (I50): 129.6
[3]
  α-Chymotrypsin (I50)/HNE(I50): 176.0

## CCC(C(=O)Oc1ccc([S+](C)[O-])cc1)c1ccccc1 (stereo not drawn) [S(O)CH3]
[1]; [5]
  IC50: 600 nM
PBS solubility
  solubility: 600 µg/mL (≈ 1980 µM)

## CCC(C(=O)Oc1ccc(SCC(C)(C)C(=O)O)cc1)c1ccccc1 (stereo not drawn) [SCH2 C(CH3)2 CO2 H]
[1]; [5]
  IC50: 892 nM
PBS solubility
  solubility: ≥ 2000 µg/mL

## CCC(C(=O)Oc1ccc(S(=O)(=O)CC(C)(C)C(=O)O)cc1)c1ccccc1 (stereo not drawn) [S(O2)CH2 C(CH3)2 CO2 H]
[1]; [5]
  IC50: 141 nM
PBS solubility
  solubility: ≥ 2000 µg/mL

## CCC(C(=O)Oc1ccc([S+]([O-])CC(C)(C)C(=O)O)cc1)c1ccccc1 (stereo not drawn) [S(O)CH2 C(CH3)2 CO2 H]
[1]; [5]
  IC50: 357 nM
PBS solubility
  solubility: ≥ 2000 µg/mL

## CCC(C(=O)Oc1ccc(S(C)(=O)=O)cc1)c1ccc2cc(OC)ccc2c1 (stereo not drawn) [Compound 384]
[1]; [4]
  IC50: 55 nM
[1]
  potency relative to Compound A: improve potency relative to a compound bearing a simple pivaloyl group
[2]
  PPE (I50)/HNE (I50): 29.1
[3]
  α-Chymotrypsin (I50)/HNE(I50): 131.8

## CCC(C(=O)Oc1ccc(SC)cc1)c1ccccc1 (stereo not drawn) [SCH3]
[1]; [5]
  IC50: 9000 nM
PBS solubility
  solubility: 10 µg/mL (≈ 34.9 µM)

## CCC(C(=O)Oc1ccc(S(C)(=O)=O)cc1)c1ccccc1 (stereo not drawn) [S(O)2 CH3]
[1]; [5]
  IC50: 100 nM
PBS solubility
  solubility: 10 µg/mL (≈ 31.4 µM)
